Source: the NIST ThermoML archive (doi:10.1016/j.jct.2017.05.001)

Test: wn = mass fraction of the nth substance listed
Settings: Liquid; for mass density: Vibrating tube method

OCCNCCO [diethanolamine] + O
viscosity [mPa·s]
Settings	w1 = 0.0993	w1 = 0.1	w1 = 0.2	w1 = 0.3	w1 = 0.3002	w1 = 0.3997	w1 = 0.4
293.15 K, 100 kPa, Concentric cylinders viscometry	–	1.486	2.287	3.621	–	–	6.311
293.15 K, 100 kPa, Falling or rolling sphere viscometry	1.493	–	2.219	–	3.633	6.248	–
293.15 K, 5000 kPa, Falling or rolling sphere viscometry	1.49	–	2.215	–	3.617	6.351	–
293.15 K, 10000 kPa, Falling or rolling sphere viscometry	1.486	–	2.214	–	3.635	6.416	–
293.15 K, 15000 kPa, Falling or rolling sphere viscometry	1.49	–	2.217	–	3.634	6.463	–
293.15 K, 20000 kPa, Falling or rolling sphere viscometry	1.487	–	2.217	–	3.661	6.534	–
293.15 K, 25000 kPa, Falling or rolling sphere viscometry	1.488	–	2.218	–	3.676	6.598	–
293.15 K, 30000 kPa, Falling or rolling sphere viscometry	1.487	–	2.22	–	3.688	6.6	–
293.15 K, 40000 kPa, Falling or rolling sphere viscometry	1.486	–	2.221	–	3.714	6.683	–
293.15 K, 60000 kPa, Falling or rolling sphere viscometry	1.487	–	2.242	–	3.766	6.853	–
293.15 K, 80000 kPa, Falling or rolling sphere viscometry	1.49	–	2.26	–	3.818	6.973	–
293.15 K, 100000 kPa, Falling or rolling sphere viscometry	1.494	–	2.277	–	3.874	7.169	–
313.15 K, 100 kPa, Concentric cylinders viscometry	–	0.914	1.343	1.977	–	–	3.197
313.15 K, 100 kPa, Falling or rolling sphere viscometry	0.9237	–	1.304	–	1.98	3.168	–
313.15 K, 5000 kPa, Falling or rolling sphere viscometry	0.915	–	1.292	–	1.976	3.174	–
313.15 K, 10000 kPa, Falling or rolling sphere viscometry	0.9172	–	1.296	–	1.983	3.222	–
313.15 K, 15000 kPa, Falling or rolling sphere viscometry	0.9188	–	1.301	–	1.993	3.248	–
313.15 K, 20000 kPa, Falling or rolling sphere viscometry	0.9192	–	1.303	–	2.004	3.239	–
313.15 K, 25000 kPa, Falling or rolling sphere viscometry	0.9215	–	1.309	–	2.012	3.28	–
313.15 K, 30000 kPa, Falling or rolling sphere viscometry	0.9226	–	1.312	–	2.022	3.303	–
313.15 K, 40000 kPa, Falling or rolling sphere viscometry	0.9253	–	1.318	–	2.039	3.361	–
313.15 K, 60000 kPa, Falling or rolling sphere viscometry	0.9334	–	1.335	–	2.08	3.438	–
313.15 K, 80000 kPa, Falling or rolling sphere viscometry	0.9414	–	1.353	–	2.119	3.538	–
313.15 K, 100000 kPa, Falling or rolling sphere viscometry	0.9509	–	1.371	–	2.158	3.625	–
333.15 K, 100 kPa, Concentric cylinders viscometry	–	0.64	0.871	1.248	–	–	1.864
333.15 K, 100 kPa, Falling or rolling sphere viscometry	0.6268	–	0.8581	–	1.247	1.885	–
333.15 K, 5000 kPa, Falling or rolling sphere viscometry	0.6258	–	0.8575	–	1.243	1.872	–
333.15 K, 10000 kPa, Falling or rolling sphere viscometry	0.6274	–	0.8602	–	1.248	1.886	–
333.15 K, 15000 kPa, Falling or rolling sphere viscometry	0.6269	–	0.8632	–	1.254	1.9	–
333.15 K, 20000 kPa, Falling or rolling sphere viscometry	0.6303	–	0.8673	–	1.258	1.912	–
333.15 K, 25000 kPa, Falling or rolling sphere viscometry	0.6312	–	0.8717	–	1.265	1.896	–
333.15 K, 30000 kPa, Falling or rolling sphere viscometry	0.6339	–	0.8763	–	1.271	1.943	–
333.15 K, 40000 kPa, Falling or rolling sphere viscometry	0.6383	–	0.8845	–	1.283	1.973	–
333.15 K, 60000 kPa, Falling or rolling sphere viscometry	0.6452	–	0.8989	–	1.312	2.029	–
333.15 K, 80000 kPa, Falling or rolling sphere viscometry	0.6532	–	0.9136	–	1.337	2.086	–
333.15 K, 100000 kPa, Falling or rolling sphere viscometry	0.6623	–	0.9264	–	1.365	2.136	–

mass density [kg/m3]
Settings	w1 = 0.0993	w1 = 0.2	w1 = 0.3002	w1 = 0.3997
293.15 K, 100 kPa	1009.4	1021.6	1034.5	1047.5
293.15 K, 500 kPa	1009.5	1021.7	1034.7	1047.7
293.15 K, 1000 kPa	1009.7	1021.9	1034.8	1047.9
293.15 K, 2000 kPa	1010.2	1022.3	1035.2	1048.2
293.15 K, 5000 kPa	1011.4	1023.5	1036.3	1049.3
293.15 K, 10000 kPa	1013.6	1025.5	1038.2	1051
293.15 K, 15000 kPa	1015.6	1027.4	1040	1052.8
293.15 K, 20000 kPa	1017.7	1029.4	1041.8	1054.5
293.15 K, 30000 kPa	1021.8	1033.3	1045.4	1058
293.15 K, 40000 kPa	1025.9	1037	1049	1061.4
293.15 K, 50000 kPa	1029.7	1040.7	1052.5	1064.7
293.15 K, 60000 kPa	1033.6	1044.4	1055.9	1068
293.15 K, 70000 kPa	1037.6	1048	1059.3	1071.2
293.15 K, 80000 kPa	1041.1	1051.4	1062.5	1074.3
293.15 K, 90000 kPa	1044.8	1054.9	1065.8	1077.4
293.15 K, 100000 kPa	1048.5	1058.4	1069.1	1080.6
293.15 K, 110000 kPa	1051.9	1061.6	1072.1	1083.5
293.15 K, 120000 kPa	1055.4	1064.9	1075.3	1086.5
293.15 K, 130000 kPa	1059	1068.3	1078.5	1089.6
293.15 K, 140000 kPa	1062.2	1071.4	1081.4	1092.4
313.15 K, 100 kPa	1002.9	1014.3	1026	1038
313.15 K, 500 kPa	1003.1	1014.4	1026.2	1038.2
313.15 K, 1000 kPa	1003.4	1014.6	1026.4	1038.4
313.15 K, 2000 kPa	1003.7	1015	1026.7	1038.7
313.15 K, 5000 kPa	1005	1016.2	1027.9	1039.8
313.15 K, 10000 kPa	1007	1018.2	1029.7	1041.7
313.15 K, 15000 kPa	1009	1020.1	1031.6	1043.4
313.15 K, 20000 kPa	1011	1022	1033.4	1045.1
313.15 K, 30000 kPa	1015.1	1025.8	1037.1	1048.7
313.15 K, 40000 kPa	1019.1	1029.7	1040.7	1052.3
313.15 K, 50000 kPa	1022.8	1033.2	1044.1	1055.6
313.15 K, 60000 kPa	1026.6	1036.9	1047.6	1059
313.15 K, 70000 kPa	1030.4	1040.4	1051	1062.2
313.15 K, 80000 kPa	1033.9	1043.8	1054.3	1065.4
313.15 K, 90000 kPa	1037.3	1047.1	1057.5	1068.5
313.15 K, 100000 kPa	1040.9	1050.6	1060.8	1071.6
313.15 K, 110000 kPa	1044.4	1053.9	1063.9	1074.7
313.15 K, 120000 kPa	1047.7	1057.1	1067.1	1077.7
313.15 K, 130000 kPa	1051.1	1060.3	1070.2	1080.7
313.15 K, 140000 kPa	1054.4	1063.5	1073.3	1083.6
333.15 K, 100 kPa	993.4	1004.2	1015.4	1026.6
333.15 K, 500 kPa	993.7	1004.4	1015.5	1026.8
333.15 K, 1000 kPa	993.9	1004.6	1015.7	1027
333.15 K, 2000 kPa	994.3	1005	1016.2	1027.4
333.15 K, 5000 kPa	995.5	1006.2	1017.3	1028.5
333.15 K, 10000 kPa	997.6	1008.2	1019.3	1030.4
333.15 K, 15000 kPa	999.6	1010.2	1021.2	1032.3
333.15 K, 20000 kPa	1001.6	1012.1	1023.1	1034.2
333.15 K, 30000 kPa	1005.7	1016	1026.9	1037.8
333.15 K, 40000 kPa	1009.7	1020	1030.6	1041.6
333.15 K, 50000 kPa	1013.4	1023.6	1034.1	1045
333.15 K, 60000 kPa	1017.2	1027.1	1037.7	1048.4
333.15 K, 70000 kPa	1020.9	1030.8	1041.1	1051.8
333.15 K, 80000 kPa	1024.5	1034.2	1044.4	1055
333.15 K, 90000 kPa	1028	1037.5	1047.7	1058.2
333.15 K, 100000 kPa	1031.5	1041	1051.1	1061.5
333.15 K, 110000 kPa	1034.9	1044.2	1054.3	1064.6
333.15 K, 120000 kPa	1038.4	1047.7	1057.5	1067.8
